Patent US5770590A, “Cyclic compounds, their prudiction and use” (Takeda Chemical Industries, Ltd., priority 1995, dated 1998)
pIC50: −log10 of the molar value.

How the values were obtained:
[1] = test system: plasma extravasation induced by capsaicin in trachea; experiment: Inhibitory effect on plasma extravasation induced by capsaicin in trachea of guinea pigs; assay type: in vivo, guinea pigs (Hartley type white male); conditions: Table 3, Dunnett's test *p < 0.05, **p < 0.01, ***p < 0.001
Description: [Inhibitory effect on plasma extravasation induced by capsaicin in trachea of guinea pigs] Guinea pigs (Hartley type white male guinea pige), (n=6) were anesthetized with 35 mg/kg of pentobarbital injected intraperitoneally (i.p.), then test compounds were administered intravenously (i.v.). After 5 minutes, a mixed solution of capsaicin (150 μg/kg) and Evans' blue dye (20 mg/kg) was administered intravenously to cause reaction. Ten minutes later, test animals were sacrificed by cutting the aorta, then perfused through pulmonary artery with 50 ml of physiological saline. The trachea was excised, and its wet weight was measure. The trachea was incubated at room temperature in 1 ml of acetone-0.3% sodium sulfate (7:3) overnight and Evans' blue dye was extracted from the trachea. The extract solution was centrifuged at 2800 rpm for 5 minutes. The amount of Evans' blue dye in the supernatant was quantified by measuring absorbance at […]. Plasma extravasation was expressed in terms of the amount of Evans' blue dye (μg) relative to the weight of the trachea (g). The efficacy of the drug was evaluated by calculating the % inhibition in accordance with the following formula, or expressed in terms of [formula] A: the amount of Evan's blue dye (μg/g) in each test animal B: The mean amount of Evan's blue dye (μg/g) of the group untreated with capsaicin.

[2] = biological target: T1, substance P receptor (receptor from human lymphoblast cells (IM-9)) (Homo sapiens, UniProt P25103); experiment: Radioligand receptor binding inhibitory activity using receptor from human lymphoblast cells (IM-9), 125I-BHSP; conditions: Table 1, IM-9 receptor, 25° C., 30 minutes
T1 construct: The receptor was prepared from human lymphoblast cells (IM-9); endogenous in cells; host or cells: IM-9 human lymphoblast cells (crude membranes)
T1 sequence (P25103 whole entry): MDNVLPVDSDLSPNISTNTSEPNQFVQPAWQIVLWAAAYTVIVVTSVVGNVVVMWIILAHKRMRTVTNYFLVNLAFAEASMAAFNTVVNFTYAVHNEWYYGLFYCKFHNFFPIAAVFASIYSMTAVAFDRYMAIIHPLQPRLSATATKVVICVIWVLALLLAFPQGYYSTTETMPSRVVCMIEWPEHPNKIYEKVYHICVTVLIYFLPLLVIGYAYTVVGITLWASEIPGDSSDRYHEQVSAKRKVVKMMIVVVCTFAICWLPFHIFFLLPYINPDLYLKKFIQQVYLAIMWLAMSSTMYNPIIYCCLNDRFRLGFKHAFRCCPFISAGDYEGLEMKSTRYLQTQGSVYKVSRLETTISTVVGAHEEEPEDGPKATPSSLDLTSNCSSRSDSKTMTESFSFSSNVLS
Description: The receptor was prepared from human lymphoblast cells (IM-9). IM-9 cells (2×10^5 cells/ml) were inoculated and incubated for 3 days (one liter), which was then subjected to centrifuge for 5 minutes at 500×g to obtain cell pellets.
After washing three times with 250 ul of 50 mM of Tris-HCl buffer (pH 7.4) containing 0.02% bovine serum albumin, the radioactivity remaining on the filter was determined with a gamma counter. Before use, the filter was immersed in 0.1% polyethyleneimine for 24 hours and air-dried.

In the case of `CC1CCn2c(c(-c3ccccc3)c3cccnc3c2=O)C(=O)N(Cc2cc(C(F)(F)F)cc(C(F)(F)F)c2)C1` (racemic) [Example 15, (+/-)-7-[3,5-Bis(trifluoromethyl)benzyl]-6,7,8,9,10,11-hexahydro-9-methyl-6,13-dioxo-5-phenyl-13H-[1,4]diazocino[2,1-g][1,7]naphthyridine], the “Inhibition of plasma extravasation” value ([1]; dose 10 μg/kg i.v.) was 68.4%.
With `Cc1ccc(-c2c3n(c(=O)c4ncccc24)CCC(C)CN(Cc2cc(C(F)(F)F)cc(C(F)(F)F)c2)C3=O)cc1` (racemic) [Example 16, (+/-)-7-[3,5-Bis(trifluoromethyl)benzyl]-6,7,8,9,10,11-hexahydro-9-methyl-5-(4-methylphenyl)-6,13-dioxo-13H-[1,4]diazocino[2,1-g][1,7]naphthyridine] the “Inhibition of plasma extravasation” value ([1]; dose 10 μg/kg i.v.) was 60.5%.
For `Cc1ccc(-c2c3n(c(=O)c4ncccc24)C[C@@H](C)CN(Cc2cc(C(F)(F)F)cc(C(F)(F)F)c2)C3=O)cc1` [Example 14, (9S)-7-[3,5-Bis(trifluoromethyl)benzyl]-6,7,8,9,10,12-hexahydro-9-methyl-5-(4-methylphenyl)-6,12-dioxo[1,4]diazepino[2,1-g][1,7]naphthyridine], the pIC50 [2] was 9.55.
With `O=C1c2c(-c3ccccc3)ccnc2OCCCN1Cc1cc(C(F)(F)F)cc(C(F)(F)F)c1` [Example 22, 5-[3,5-Bis(trifluoromethyl)benzyl]-2,3,4,5-tetrahydro-6-oxo-7-phenyl-6H-pyrido[2,3-b][1,5]oxazocine] the “Inhibition of plasma extravasation” value ([1]; dose 100 μg/kg i.v.) was 41.2%.
With `Cc1cnc2c(c1-c1ccccc1)C(=O)N(Cc1cc(C(F)(F)F)cc(C(F)(F)F)c1)CCO2` [Example 23, 4-[3,5-Bis(trifluoromethyl)benzyl]-2,3,4,5-tetrahydro-7-methyl-5-oxo-6-phenylpyrido[3,2-f][1,4]oxazepine] the “Inhibition of plasma extravasation” value ([1]; dose 100 μg/kg i.v.) was 64.0%.
In the case of `Cc1cnc2c(c1-c1ccccc1)C(=O)N(Cc1cc(C(F)(F)F)cc(C(F)(F)F)c1)CCCO2` [Example 24, 5-[3,5-Bis(trifluoromethyl)benzyl]-2,3,4,5-tetrahydro-8-methyl-6-oxo-7-phenyl-6H-pyrido[2,3-b][1,5]oxazocine], the “Inhibition of plasma extravasation” value ([1]; dose 100 μg/kg i.v.) was 53.1%.
